From article PMC6571133, “Capsazepine prolongation of the duration of lidocaine block of sensory transmission in mice may be mediated by modulation of HCN channel currents” (PeerJ, 2019)

Tests used:
mHCN1 (Mouse HCN1) = mHCN1 (Mouse HCN1) (Mus musculus, UniProt O88704); assay: whole-cell patch clamp of Ih in transfected HEK […] cells; assay type: cell-based
mHCN2 (Mouse HCN2) = target: T1, mHCN2 (Mouse HCN2) (Mus musculus, UniProt O88703); assay: as above; assay type: cell-based
T1 sequence (O88703 1-863): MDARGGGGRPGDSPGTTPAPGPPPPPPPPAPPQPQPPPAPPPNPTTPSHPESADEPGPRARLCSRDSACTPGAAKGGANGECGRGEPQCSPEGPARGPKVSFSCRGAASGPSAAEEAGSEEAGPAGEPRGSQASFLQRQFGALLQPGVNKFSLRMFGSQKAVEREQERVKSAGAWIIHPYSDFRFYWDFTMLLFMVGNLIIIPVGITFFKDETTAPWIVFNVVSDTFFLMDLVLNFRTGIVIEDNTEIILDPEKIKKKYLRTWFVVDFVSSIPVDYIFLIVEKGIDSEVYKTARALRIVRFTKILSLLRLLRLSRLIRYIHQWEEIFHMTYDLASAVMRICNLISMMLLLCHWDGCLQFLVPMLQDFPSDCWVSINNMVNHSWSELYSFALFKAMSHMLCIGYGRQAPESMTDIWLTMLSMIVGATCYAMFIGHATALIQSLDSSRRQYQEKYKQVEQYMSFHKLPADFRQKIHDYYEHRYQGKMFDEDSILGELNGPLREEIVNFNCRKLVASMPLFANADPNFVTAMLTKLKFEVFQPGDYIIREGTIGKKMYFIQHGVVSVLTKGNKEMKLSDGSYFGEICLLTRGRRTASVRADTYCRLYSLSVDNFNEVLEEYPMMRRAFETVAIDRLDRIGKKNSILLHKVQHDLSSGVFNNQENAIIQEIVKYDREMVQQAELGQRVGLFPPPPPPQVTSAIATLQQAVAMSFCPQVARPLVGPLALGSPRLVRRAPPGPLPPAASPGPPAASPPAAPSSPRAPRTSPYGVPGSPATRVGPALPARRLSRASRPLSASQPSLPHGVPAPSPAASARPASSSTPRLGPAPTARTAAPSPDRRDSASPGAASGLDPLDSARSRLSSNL

Sequence of mHCN1 (Mouse HCN1) (O88704 whole entry): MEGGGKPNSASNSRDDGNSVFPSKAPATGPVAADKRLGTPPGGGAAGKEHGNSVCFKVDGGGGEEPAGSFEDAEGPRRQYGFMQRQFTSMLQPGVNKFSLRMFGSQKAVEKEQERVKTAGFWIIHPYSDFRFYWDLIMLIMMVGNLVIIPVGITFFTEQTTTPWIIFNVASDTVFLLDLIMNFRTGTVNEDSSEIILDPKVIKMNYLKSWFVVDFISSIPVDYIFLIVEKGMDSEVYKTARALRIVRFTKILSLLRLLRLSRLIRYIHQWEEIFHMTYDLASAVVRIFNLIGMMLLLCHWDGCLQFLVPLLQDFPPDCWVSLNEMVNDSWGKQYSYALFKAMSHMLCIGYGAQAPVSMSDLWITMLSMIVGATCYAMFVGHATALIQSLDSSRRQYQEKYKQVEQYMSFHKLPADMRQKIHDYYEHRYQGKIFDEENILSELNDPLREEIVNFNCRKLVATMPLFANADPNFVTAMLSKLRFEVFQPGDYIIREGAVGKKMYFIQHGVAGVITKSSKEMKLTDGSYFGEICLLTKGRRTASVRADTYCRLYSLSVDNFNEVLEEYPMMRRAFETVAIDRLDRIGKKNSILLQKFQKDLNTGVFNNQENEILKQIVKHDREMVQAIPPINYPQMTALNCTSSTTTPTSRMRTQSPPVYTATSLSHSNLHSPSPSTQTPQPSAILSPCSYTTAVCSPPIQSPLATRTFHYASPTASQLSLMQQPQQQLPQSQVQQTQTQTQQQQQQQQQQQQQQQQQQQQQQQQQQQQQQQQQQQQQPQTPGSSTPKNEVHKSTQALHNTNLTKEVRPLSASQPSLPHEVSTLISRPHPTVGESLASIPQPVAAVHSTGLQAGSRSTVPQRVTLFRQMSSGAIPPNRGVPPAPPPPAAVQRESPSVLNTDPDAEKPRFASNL

- IC50 (mHCN1 (Mouse HCN1)): 8.2 ± 0.3 µM
- IC50 (mHCN2 (Mouse HCN2)): 9.6 ± 0.4 µM
SMILES: Oc1cc2c(cc1O)CN(C(=S)NCCc1ccc(Cl)cc1)CCC2 [CPZ, Capsazepine]
